The record followed here is patent US20180042873A1, “NOVEL METHODS” (Aeromics, Inc., priority 2014, published 2018).

In test [1] the test system is cardiac allograft (BalbC donor heart in B6 recipient). The experiment in a line: Cardiac allograft rejection model (intraabdominal heterotopic vascularized cardiac transplantation between genetically mismatched mice). In kind it is in vivo, mouse. As to conditions: for survival after 20 days: BalbC heart into B6, after 20 days; for survival after 50 days: BalbC heart into B6, after 50 days. Here is the method:
The ability of an APQ inhibitor of the present disclosure to protect against transplant rejection is determined in an intraabdominal heterotopic vascularized cardiac transplantation model between genetically mismatched mice. Four conditions are compared: the use of an APQ4 inhibitor alone, the use of a CTLA4 Ig alone, the combination of an APQ4 inhibitor with a CTLA4 Ig, and a control.
The donor mouse (BalbC, fully genetically mismatched with respect to the recipient mouse which is B6, C57BL/6) is given a 10 mg/kg IP bolus of 2-((3,5-bis(trifluoromethyl)phenyl)carbamoyl)-4-chlorophenyl dihydrogen phosphate in TrisBase 30 minutes prior to surgery.
Before removing the heart, the donor is perfused with Ringer's solution containing 10 μM N-[3,5-bis(trifluoromethyl)phenyl]-5-chloro-2-hydroxybenzamide. After removal from the donor, the heart is stored at 0-4° C. for 8 hours in Ringer's solution containing 10 μM N-[3,5-bis(trifluoromethyl)phenyl]-5-chloro-2-hydroxybenzamide (Cold Ischemic Storage).
30 Minutes prior to surgery, the recipient mouse is given a 10 mg/kg IP bolus of 2-((3,5-bis(trifluoromethyl)phenyl)carbamoyl)-4-chlorophenyl dihydrogen phosphate in TrisBase. The heart is then transplanted into the recipient mouse (B6 mouse) using the vascularized heterotopic cardiac transplantation model. After closing, the recipient mouse receives 10 mg/kg IP injection of 2-((3,5-bis(trifluoromethyl)phenyl)carbamoyl)-4-chlorophenyl dihydrogen phosphate in TrisBase every 6 hours for 5 days.
The recipient mouse (B6) is administered a single dose of Belatacept IP at 10 mg/kg on the day of the transplant surgery as well as a single dose of Belatacept IP at 10 mg/kg 24 hours after surgery.
As a negative control, both the donor and recipient mice receive IP administration of TrisBase with neither an APQ4 inhibitor nor a CTLA4 Ig. Results
The recipient mice are monitored until their hearts stops beating.

Test [2] deals with explanted heart from BALB/c mice. The experiment in a line: Cardiac explant experiment: apoptosis by Annexin V flow cytometry after 8 h Cold Ischemic Storage. Further details: species or system mouse. As to conditions: 10 μM in Ringer's solution, 8 hours cold storage at 0-4° C. Here is the method:
This experiment is a model for determining the extent of apoptosis occurring in an explanted heart from BALB/c mice. Hearts are perfused with Ringer's solution either supplemented with 10 μM of N-[3,5-bis(trifluoromethyl)phenyl]-5-chloro-2-hydroxybenzamide (Compound 1), or without such supplementation. The explanted hearts are then placed in Cold Ischemic Storage (at 0-4° C.) in their respective buffer solutions for 8 hours. The hearts are then photographed and triturated for analysis of apoptosis using Annexin V flow cytometry. Annexin V is used to label phosphatidylserine on the surface of cells, and this is a conventional marker for cells that have undergone apoptosis. […] In contrast, hearts maintained in the APQ4-inhibitor supplemented Ringer's solution show only about 8% apoptotic cells.
In general terms: A flow cytometer gives signals particle by particle.

On to `O=C(Nc1cc(C(F)(F)F)cc(C(F)(F)F)c1)c1cc(Cl)ccc1OP(=O)(O)O` [APQ4 inhibitor, 2-((3,5-bis(trifluoromethyl)phenyl)carbamoyl)-4-chlorophenyl dihydrogen phosphate], for which, in test [1], the “survival after 20 days” value is “about 30%” and the “survival after 50 days” value was “about 10%”. Besides, the “survival from about 60 days through the end of monitoring at 120 days” value in test [1] (about 60 days to 120 days) is “about 5%”.
`O=C(Nc1cc(C(F)(F)F)cc(C(F)(F)F)c1)c1cc(Cl)ccc1O` [Compound 1, N-[3,5-bis(trifluoromethyl)phenyl]-5-chloro-2-hydroxybenzamide]: the apoptotic cells entry in test [2] is on record as “about 8%”.
As to “Belatacept [CTLA4 Ig, reference compound]”, in test [1], the “survival after 20 days” value is on record as “approximately 60%” and the “survival after 50 days” value is “about 40%”. Further, the “survival from about 60 days through the end of monitoring at 150 days” value in test [1] (about 60 days to 150 days) is “about 13%”.
